In US4308380A, “2-Lower alkyl-2 or 3-cephem-4-carboxylic acid derivatives” (Fujisawa Pharmaceutical Co., Ltd., priority 1973, dated 1981):
≈ marks a conversion by molar mass, not a printed value. Where two headings read alike, the source gives them in different places.

Legend:
Type in all cases: cell-based
[1] = system: Staphylococcus aureus 209 P JC-1; experiment: in vitro antimicrobial activity, two-fold agar-plate dilution method, S. aureus 209 P JC-1; details: 20 hours
Experimental: (§1) In vitro antimicrobial activity was determined by the two-fold agar-plate dilution method as described below.
(§2) One loopful of an overnight culture of each test strain in Trypticase-soy broth (10^8 viable cells per ml) was streaked on heart infusion agar (HI-agar) containing graded concentration of antibiotics, and the minimum inhibitory concentration (MIC) was expressed in terms of meg/ml after incubation at 37° C. for 20 hours.
(§3) The data in Table 1 below present a comparison between the 2-(C1 -C6 alkyl)-cephem compounds of the present invention and known cephem compounds structurally analogous to the present compounds, differing only by alkyl substitution in the 3-position. The in vitro tests of antimicrobial activity of the compared compounds were determined by the two-fold agar plate dilution method described as follows:
as §2, with “(HI sugar)” for “(HI-agar)”, “mcg/ml” for “meg/ml”

[2] = system: Staphylococcus aureus 206; experiment: in vitro antimicrobial activity, two-fold agar plate dilution method, S. aureus 206; details: Table 1, S. aureus 206, 37° C., 20 hours, read-out: minimum inhibitory concentration (MIC)
Experimental: (§4) The in vitro tests of antimicrobial activity of the compared compounds were determined by the two-fold agar plate dilution method described as follows: […]

[3] = system: Staphylococcus aureus 213; experiment: in vitro antimicrobial activity, two-fold agar plate dilution method, S. aureus 213; details: Table 1, S. aureus 213, 37° C., 20 hours, read-out: minimum inhibitory concentration (MIC)
Experimental: as §4

[4] = system: Staphylococcus aureus 226; experiment: in vitro antimicrobial activity, two-fold agar plate dilution method, S. aureus 226; details: Table 1, S. aureus 226, 37° C., 20 hours, read-out: minimum inhibitory concentration (MIC)
Experimental: as §4

[5] = system: Staphylococcus aureus 277; experiment: in vitro antimicrobial activity, two-fold agar plate dilution method, S. aureus 277; details: Table 1, S. aureus 277, 37° C., 20 hours, read-out: minimum inhibitory concentration (MIC)
Experimental: as §4

[6] = system: Staphylococcus aureus 278; experiment: in vitro antimicrobial activity, two-fold agar plate dilution method, S. aureus 278; details: Table 1, S. aureus 278, 37° C., 20 hours, read-out: minimum inhibitory concentration (MIC)
Experimental: as §4

[7] = system: Bacillus subtilis ATCC-6633; experiment: in vitro antimicrobial activity, two-fold agar-plate dilution method, B. subtilis ATCC-6633; details: 20 hours
Experimental: as §1, §2, §3
as §2, with “(HI sugar)” for “(HI-agar)”, “mcg/ml” for “meg/ml”

[8] = 209PJC1, Table 1, S. aureus 209 P JC-1, 37° C., read-out: minimum inhibitory concentration (MIC)
[9] = ATCC6633, Table 1, B. subtilis ATCC-6633, 37° C., read-out: minimum inhibitory concentration (MIC)
[10] = S. aureus 209-P JC-1, 37° C., HI-agar, read-out: MIC
[11] = ATCC6633, B. subtilis ATCC-6633, 37° C., HI-agar, read-out: MIC

MIC [1, 8] | MIC [2] | MIC [3] | MIC [4] | MIC [5] | MIC [6] | MIC [7, 9] | MIC [1, 10] | MIC [7, 11] | SMILES
12.5 µg/mL (≈ 36.7 µM) | 12.5 µg/mL (≈ 36.7 µM) | 25 µg/mL (≈ 73.4 µM) | 25 µg/mL (≈ 73.4 µM) | 25 µg/mL (≈ 73.4 µM) | 25 µg/mL (≈ 73.4 µM) | 3.13 µg/mL (≈ 9.2 µM) | – | – | CC1=C(C(=O)O)N2C(=O)C(NC(=O)Cc3cnsn3)[C@H]2SC1 (stereo partly shown) [cited compound (12), 3-Methyl-7-[2-(1,2,5-thiadiazol-3-yl)acetamido]-3-cephem-4-carboxylic acid, reference compound]
1.56 µg/mL (≈ 4.19 µM) | 3.13 µg/mL (≈ 8.4 µM) | 6.25 µg/mL (≈ 16.8 µM) | 3.13 µg/mL (≈ 8.4 µM) | 3.13 µg/mL (≈ 8.4 µM) | 6.25 µg/mL (≈ 16.8 µM) | 0.78 µg/mL (≈ 2.09 µM) | 1.56 µg/mL (≈ 4.19 µM) | 0.78 µg/mL (≈ 2.09 µM) | CC1C=C(C(=O)O)N2C(=O)C(NC(=O)CSc3nncs3)[C@H]2S1 (stereo partly shown) [Applicants' compound (11), 2-Methyl-7-[2-(1,3,4-thiadiazol-2-ylthio)acetamido]-3-cephem-4-carboxylic acid]
0.2 µg/mL (≈ 0.549 µM) | 0.39 µg/mL (≈ 1.07 µM) | 0.39 µg/mL (≈ 1.07 µM) | 0.39 µg/mL (≈ 1.07 µM) | 1.56 µg/mL (≈ 4.28 µM) | 0.78 µg/mL (≈ 2.14 µM) | 0.2 µg/mL (≈ 0.549 µM) | 0.2 µg/mL (≈ 0.549 µM) | 0.2 µg/mL (≈ 0.549 µM) | CC1C=C(C(=O)O)N2C(=O)C(NC(=O)CSc3ccccc3)C2S1 (stereo not shown) [Applicants' compound (9), 2-Methyl-7-(2-phenylthioacetamido)-3-cephem-4-carboxylic acid]
0.78 µg/mL (≈ 2.2 µM) | 0.78 µg/mL (≈ 2.2 µM) | 3.13 µg/mL (≈ 8.83 µM) | 3.13 µg/mL (≈ 8.83 µM) | 3.13 µg/mL (≈ 8.83 µM) | 3.13 µg/mL (≈ 8.83 µM) | 0.78 µg/mL (≈ 2.2 µM) | 0.78 µg/mL (≈ 2.2 µM) | 0.78 µg/mL (≈ 2.2 µM) | CC1C=C(C(=O)O)N2C(=O)C(NC(=O)C(O)c3cccs3)[C@H]2S1 (stereo partly shown) [Applicants' compound (2), 2-Methyl-7-[2-hydroxy-2-(2-thienyl)acetamido]-3-cephem-4-carboxylic acid]
1.56 µg/mL (≈ 4.4 µM) | 3.13 µg/mL (≈ 8.83 µM) | 1.56 µg/mL (≈ 4.4 µM) | 1.56 µg/mL (≈ 4.4 µM) | 1.56 µg/mL (≈ 4.4 µM) | 1.56 µg/mL (≈ 4.4 µM) | 3.13 µg/mL (≈ 8.83 µM) | – | – | CC1C=C(C(=O)O)N2C(=O)C(NC(=O)Cc3csc(N)n3)[C@H]2S1 (stereo partly shown) [Applicants' compound (17), 2-Methyl-7-[2-(2-aminothiazol-4-yl)acetamido]-3-cephem-4-carboxylic acid]
1.56 µg/mL (≈ 3.44 µM) | 12.5 µg/mL (≈ 27.6 µM) | 12.5 µg/mL (≈ 27.6 µM) | 12.5 µg/mL (≈ 27.6 µM) | 12.5 µg/mL (≈ 27.6 µM) | 12.5 µg/mL (≈ 27.6 µM) | 0.78 µg/mL (≈ 1.72 µM) | – | – | CC1=C(C(=O)O)N2C(=O)C(NC(=O)C(OC(=O)c3ccncc3)c3ccccc3)C2SC1 (stereo not shown) [cited compound (4), reference compound]
1.56 µg/mL (≈ 3.09 µM) | 3.13 µg/mL (≈ 6.19 µM) | 3.13 µg/mL (≈ 6.19 µM) | 1.56 µg/mL (≈ 3.09 µM) | 12.5 µg/mL (≈ 24.7 µM) | 3.13 µg/mL (≈ 6.19 µM) | 3.13 µg/mL (≈ 6.19 µM) | 1.56 µg/mL (≈ 3.09 µM) | 3.13 µg/mL (≈ 6.19 µM) | CC1C=C(C(=O)O)N2C(=O)C(NC(=O)C(NC(=O)CSc3nncs3)c3ccccc3)[C@H]2S1 (stereo partly shown) [Applicants' compound (1), 2-Methyl-7-[N-[2-(1,3,4-thiadiazol-2-ylthio)acetyl]phenylglycyl]amino-3-cephem-4-carboxylic acid]
3.13 µg/mL (≈ 11.1 µM) | 6.25 µg/mL (≈ 22.2 µM) | 12.5 µg/mL (≈ 44.4 µM) | 6.25 µg/mL (≈ 22.2 µM) | 3.13 µg/mL (≈ 11.1 µM) | 6.25 µg/mL (≈ 22.2 µM) | 3.13 µg/mL (≈ 11.1 µM) | 3.13 µg/mL (≈ 11.1 µM) | 3.13 µg/mL (≈ 11.1 µM) | CC1C=C(C(=O)O)N2C(=O)C(NC(=O)CC#N)[C@H]2S1 (stereo partly shown) [Applicants' compound (13), 2-Methyl-7-(2-cyanoacetamido)-3-cephem-4-carboxylic acid]
0.39 µg/mL (≈ 0.86 µM) | 0.78 µg/mL (≈ 1.72 µM) | 1.56 µg/mL (≈ 3.44 µM) | 0.78 µg/mL (≈ 1.72 µM) | 6.25 µg/mL (≈ 13.8 µM) | 1.56 µg/mL (≈ 3.44 µM) | 0.78 µg/mL (≈ 1.72 µM) | 0.39 µg/mL (≈ 0.86 µM) | 0.78 µg/mL (≈ 1.72 µM) | CC1C=C(C(=O)O)N2C(=O)C(NC(=O)C(OC(=O)c3ccncc3)c3ccccc3)[C@H]2S1 (stereo partly shown) [Applicants' compound (4), 2-Methyl-7-(2-isonicotinoyloxy-2-phenylacetamido)-3-cephem-4-carboxylicacid]
0.39 µg/mL (≈ 1.07 µM) | 0.39 µg/mL (≈ 1.07 µM) | 0.78 µg/mL (≈ 2.14 µM) | 1.56 µg/mL (≈ 4.28 µM) | 0.39 µg/mL (≈ 1.07 µM) | 0.39 µg/mL (≈ 1.07 µM) | 0.39 µg/mL (≈ 1.07 µM) | – | – | CC1=C(C(=O)O)N2C(=O)C(NC(=O)CSc3ccccc3)C2SC1 (stereo not shown) [cited compound (9), 3-Methyl-7-(2-phenylthioacetamido)-3-cephem-4-carboxylic acid, reference compound]
